Where two headings read alike, the source gives them in different places.
How the values were obtained:
[1] = tested on: PGE2/EP4 signal transduction in MCF7 cells; test: Determination of MCF7 cAMP (PGE2-stimulated, HTRF); format: cell-based; details: Homo sapiens
Protocol: • a) MCF7 cells (ATCC, 6000 cells/well/40 μl) were inoculated into a 384-well cell culture plate containing a medium (DMEM containing 10% FBS and 1×PS), and incubated overnight at 37° C. and 5% CO2. • b) The medium was removed, 40 μl/well of serum-free medium was added, and the cells were incubated at 37° C. and 5% CO2 for 5 hours. • c) The medium was replaced with 18 μL/well of HBSS buffer (Hepes 20 mM, 0.1% BSA, 500 μM IBMX). • d) The compound in DMSO was diluted (1/5 dilution, 9+0 dose). • e) 2 μL of the compound in d) was added to 98 μL of HBSS buffer. • f) 1 μL/well of the diluted compound in e) was added to the cells, with a final starting concentration of 1 μM, and the cells were incubated at 37° C. for 1 hour. • g) The cells were stimulated with 1 μL/well of PGE2 (10 mM DMSO stock solution) (final concentration: 10 nM, and DMSO final concentration: 0.2%), and incubated at 37° C. for 30 minutes. • h) After the incubation, 10 μL/well of cAMP-d2 and 10 μL/well of anti-cAMP were added, RT 1 h. • i) HTRF signals (665 nm/615 nm) were read on Envision. Data Analysis: • High control: 1 μM E7046 • Low control: DMSO • Background: 30 μL/well of lysis buffer+10 μL/well of anti-cAMP • Analytical data: original date—background Inhibition %: 100−100×(high control−analytical data)/(high control−low control)

[2] = Clearance assay in liver cells; format: in vitro ADME; details: cryopreserved mouse liver cells (hepatocytes); mouse (ICR/CD-1, male) cryopreserved liver cells, 0-120 min
Protocol: • Liver cell type: mouse • Product catalog: M00505 • Species: ICR/CD-1 • Sex: male • Source: BioreoclmationIVT Procedures: • 1. Preparation of working solution • a. 10 mM stock solutions of test compound and positive control were prepared in an appropriate solvent (DMSO). • b. 198 μL of 50% acetonitrile/50% water and 2 μL of 10 mM solution were mixed in a separate conical tube to obtain 100 μM test compound and positive control. • 2. Preparation of liver cells • a. The incubation medium and liver cell thawing medium were placed in a 37° C. water bath, and heated for at least 15 minutes before use. • b. A vial of cryopreserved liver cells was transferred from the storage, ensuring that the vial was kept at a low temperature until the thawing process was conducted. The cells were thawed by placing the vial in a 37° C. water bath and gently shaking the vial for 2 minutes. After completion of the thawing, the vial was sprayed with 70% ethanol and transferred to a biological safety cabinet. • c. The liver cells were transferred to a 50 mL conical tube containing the thawing medium by a large-bore pipette tip. The 50 mL conical tube was placed in a centrifuge and centrifuged at 100 g for 10 minutes. After completion of the centrifugation, the thawing medium was sucked out, and the liver cells were resuspended in enough medium to produce 1.5×10^6 cells/mL. • 3. Procedures of stability assay • a. 198 μL of liver cells were pipetted into each well of a 96-well uncoated plate. The plate was placed in an incubator to warm up the liver cells for 10 minutes. • b. 2 μL of 100 μM test compound or positive control was pipetted into each well of the 96-well uncoated plate to start the reaction. The plate was placed into the incubator at the set time point. • c. The contents of the wells were transferred in 25 μL of aliquots at the time points of 0, 15, 30, 60, 90 and 120 minutes. The aliquot was mixed with 6 volumes (150 μL) of acetonitrile containing internal standard IS (100 nM alprazolam, 200 nM caffeine, and 100 nM tolbutamide) to stop the reaction. The sample was vortex-mixed for 5 minutes, and centrifuged at 3220 g for 45 minutes. An aliquot of 100 μL of supernatant was diluted with 100 μL of ultrapure water, and the mixture was used for LC/MS/MS analysis. All incubations were performed in duplicate. • d. Data analysis
All calculations were performed using Microsoft Excel. The peak area was determined by the extracted ion chromatogram. The in vitro half-life (t½) of the parent compound was determined by the regression analysis of the compound disappearance percentage versus time curve.
The in vitro half-life (t½) was determined by the slope value k: t½=0.693/k
The in vitro t½ (in minutes) was converted to in vitro intrinsic clearance (CLint, in μL/min/0.5×10^6 cells) by using the following equation (average of repeated determinations): […]

[3] = tested on: CT-26 colorectal tumor; test: Inhibitory effect of compound 6 on CT-26 colorectal tumor in mouse; format: in vivo; details: for effect on the growth of CT-26 tumor: administered alone, different doses (compound 6: 10, 30 or 150 mg/kg p.o. once a day); for effect on the body weight of mouse: CT-26 colorectal cancer model, FIG. 2
Protocol: Efficacy study on allograft tumor: each 6-week-old female BALB/c mouse was subcutaneously inoculated with 1×10^6 CT26 cancer cells (National Experimental Cell Resource Sharing Service Platform, Resource Number 3111CCCC). When the tumor reached about 60 to 80 mm^3, the tumor-bearing mice were randomly grouped to the vehicle group or treatment group. Compound 6 was administered orally (p.o.) in a 0.5% MC suspension at a dose of 10, 30 or 150 mg/kg, once a day. The mice in the vehicle group were orally administered with distilled water every day, and the administration time was the same as that of the compound 6 group. The tumor volume and body weight were recorded 2 to 3 times a week.

[4] = tested on: EMT-6 breast tumor; test: Compound 6 and anti-PD-1 antibody alone or in combination on EMT-6 breast tumor in mouse; format: in vivo
Protocol: (§1) Efficacy study on allograft tumor: each 6-week-old female BALB/c mouse was subcutaneously inoculated with 5×10^5 EMT-6 cancer cells. When the tumor reached about 60 to 80 mm^3, the tumor-bearing mice were randomly grouped to the vehicle group or treatment group. When administered alone or in combination, compound 6 was administered orally (p.o.) in a 0.5% MC suspension at a dose of 30 mg/kg, once a day. When administered alone or in combination, anti-PD-1 antibody (Invivomab anti-mouse PD-1 (CD279), Abcam) was administered intraperitoneally at a dose of 20 mg/kg on the first administration, and at a dose of 10 mg/kg on the following administrations once every 5 days. The mice in the vehicle group and PD-1 antibody-administered alone group were orally administered with distilled water every day, and the administration time was the same as that of the compound 6 group. The tumor volume and body weight were recorded 2 to 3 times a week.

[5] = tested on: CT-26 colorectal tumor; test: Compound 6 and anti-PD-1 antibody alone or in combination on CT-26 colorectal tumor in mouse; format: in vivo
Protocol: as §1, with “1×10^6 CT26” for “5×10^5 EMT-6”, “30 or 150” for “30”, “5 mg/kg,” for “20 mg/kg on the first administration, and at a dose of 10 mg/kg on the following administrations”, “4 days, for a total of 3 times (Q4D×3).” for “5 days.”

[6] = MCF7 cells, 10 nM PGE2 stimulation, cAMP HTRF, read-out: MCF7 cAMP IC50
[7] = BALB/c mice, CT26 allograft, FIG. 1

| Compound | IC50 [1, 6] | hepatocyte CLint at 1 µM [2] | other results |
| --- | --- | --- | --- |
| O=C(NC1(C23CC(C(=O)O)(C2)C3)CC1)c1cc(Cl)cc2ccn(Cc3ccc(-c4ccccc4)cn3)c12 [Compound 7, 3-(1-(5-Chloro-1-((5-phenylpyridin-2-yl)methyl)-1H-indole-7-carboxamido)cyclopropyl)bicyclo[1.1.1]pentane-1-carboxylic acid] | 0.13 nM | 34 µL/min/1e6 cells |  |
| O=C(O)c1ccc(C2(NC(=O)c3cccc4ccn(Cc5ccc(C(F)(F)F)cc5)c34)CC2)cc1 [MF-766, 4-(1-(1-(4-(trifluoromethyl)benzyl)-1H-indole-7-carboxamido)cyclopropyl)benzoic acid, reference compound] |  | 12.5 µL/min/1e6 cells | IC50 ([1]; MCF7, read-out: MCF7 cAMP IC50): 1.3 nM |
| C[C@H](NC(=O)c1c(C(F)F)nn(C)c1Oc1cccc(C(F)(F)F)c1)c1ccc(C(=O)O)cc1 [Compound E7046, (S)-4-(1-(3-(difluoromethyl)-1-methyl-5-(3-(trifluoromethyl)phenoxy)-1H-pyrazole-4-carboxamido)ethyl)benzoic acid, reference compound] |  | 20.1 µL/min/1e6 cells | IC50 ([1]; MCF7, read-out: MCF7 cAMP IC50): 11.2 nM; effect on the growth of CT-26 tumor [3, 7]: significant inhibitory effect; effect on the body weight of mouse [3]: no significant effect |
| O=C(NC1(C23CC(C(=O)O)(C2)C3)CC1)c1cccc2ccn(Cc3cc4ccccc4o3)c12 [Compound 6, 3-(1-(1-(Benzofuran-2-ylmethyl)-1H-indole-7-carboxamido)cyclopropyl)bicyclo[1.1.1]pentane-1-carboxylic acid] | 1.1 nM | 2.9 µL/min/1e6 cells | effect on the body weight of mouse ([4]; EMT-6 model, compound 6 alone or in combination with anti-PD-1 antibody, FIG. 6): no significant effect; effect on the EMT-6 breast tumor in mouse ([4]; compound 6 30 mg/kg p.o. once a day, alone or in combination with anti-PD-1 antibody (20 mg/kg first, then 10 mg/kg i.p. every 5 days), FIG. 5): good inhibitory effect; effect on the growth of CT-26 tumor [3, 7]: significant inhibitory effect; effect on CT-26 tumor growth compared with E7046 ([3]; BALB/c mice, CT26 allograft, at the same dose, FIG. 1): significantly better than E7046; effect on the body weight of mouse [3]: no significant effect; effect on the body weight of mouse ([5]; CT-26 model, compound 6 alone or in combination with anti-PD-1 antibody, FIG. 4): no significant effect; effect on the growth of CT-26 tumor in mouse ([5]; compound 6 30 or 150 mg/kg p.o. once a day, alone or in combination with anti-PD-1 antibody 5 mg/kg i.p. Q4Dx3, FIG. 3): good inhibitory effect |

Continued, in another order:

| IC50 [1, 6] | hepatocyte CLint at 1 µM [2] | Compound | other results |
| --- | --- | --- | --- |
| 0.9 nM | 1.93 µL/min/1e6 cells | O=C(NC1(C23CC(C(=O)O)(C2)C3)CC1)c1cccc2ccn(Cc3cc4cc(F)ccc4o3)c12 [Compound 21, 3-(1-(1-((5-Fluorobenzofuran-2-yl)methyl)-1H-indole-7-carboxamido)cyclopropyl)bicyclo[1.1.1]pentane-1-carboxylic acid] |  |
| 0.89 nM | 19 µL/min/1e6 cells | O=C(NC1(C23CC(C(=O)O)(C2)C3)CC1)c1cccc2ccn(Cc3ccc(-c4ccccc4)cn3)c12 [Compound 2, 3-(1-(1-((5-Phenylpyridin-2-yl)methyl)-1H-indole-7-carboxamido)cyclopropyl)bicyclo[1.1.1]pentane-1-carboxylic acid] |  |
| 1.1 nM | 20 µL/min/1e6 cells | O=C(NC1(C23CCC(C(=O)O)(CC2)CC3)CC1)c1cccc2ccn(Cc3ccc(C(F)(F)F)cc3)c12 [Compound 9, 4-(1-(1-(4-(Trifluoromethyl)benzyl)-1H-indole-7-carboxamido)cyclopropyl)bicyclo[2.2.2]octane-1-carboxylic acid] |  |
| 2.4 nM | 7.1 µL/min/1e6 cells | O=C(NC1(C23CC(C(=O)O)(C2)C3)CC1)c1cccc2ccn(Cc3ccc(C(F)(F)F)cc3)c12 [Compound 1, 3-(1-(1-(4-(Trifluoromethyl)benzyl)-1H-indole-7-carboxamido)cyclopropyl)bicyclo[1.1.1]pentane-1-carboxylic acid] |  |
| 1.5 nM | 1.35 µL/min/1e6 cells | O=C(NC1(C23CC(C(=O)O)(C2)C3)CC1)c1cncc2ccn(Cc3cc4ccccc4o3)c12 [Compound 25, 3-(1-(1-(benzofuran-2-ylmethyl)-1H-pyrrolo[3,2-c]pyridine-7-carboxamido)cyclopropyl)bicyclo[1.1.1]pentane-1-carboxylic acid] |  |
